Measurements as given in PMC8766875 (Nature biotechnology, 2021).
Each block holds one compound with its values, some of them ahead of it.

What was measured:
[1] = design: species or system swine (female Yorkshire); settings: in vivo
swine = assay: Pharmacodynamic response in dosed swine; type: in vivo
[2] = cited from earlier work
[3] = In vivo pharmacokinetics of insulin and GLP-1 analog in swine; settings: removed from dataset
[4] = 0.24 mg, injection (intramuscular) and L-SOMA groups

systemic uptake after endoscopic gavage (negative control) [1]: negligible uptake
Compound: CNC[C@H](O)c1ccc(O)c(O)c1 [epinephrine]
blood glucose response (swine; [4]): rapid rise | heart rate response (swine; [4]): rapid rise in heart rate

Compound: GLP-1
ability to traverse the stomach lining for systemic uptake ([2]; in vivo): severely limited ability | bioavailability when using a permeation enhancer ([2]; not told): approximately 1%

Compound: adalimumab
systemic uptake after endoscopic gavage (negative control) [1]: negligible uptake

Compound: recombinant human insulin
plasma insulin level at t=0 ([3]; one L-SOMA-dosed swine, possible sample contamination): 41.6 pM | peak plasma level ([3]; same single L-SOMA-dosed swine, at 45 minutes): 136 pM | plasma glucose response (swine; 4 IU, injection and L-SOMA groups): immediate hypoglycemic onset

Compound: semaglutide
oral bioavailability ([2]; in vivo, po): approximately 1%
